Data set [1] has as its target T1, PTPRZ-ICR (Homo sapiens, UniProt P23471, DEL1723-1729). As to the kind of experiment: Isothermal titration calorimetry.
Method: Titration isotherm (with error bars). The isotherm was fit to a one-to-one binding model (solid line) using the program SEDPHAT (ref. [48]) with a 1:1 binding model (B). The single dissociation constant and enthalpy change are indicated in the inset. Residuals calculated by subtracting fit values from observed values (C).
The titration sequence included a single 0.4 μl injection followed by 19 injections of 2 μl each at an interval of 120 s between the injections.
Another data set has as its target T2, human PTPRS (Homo sapiens, UniProt Q13332).
T2 sequence (Q13332 1304-1948): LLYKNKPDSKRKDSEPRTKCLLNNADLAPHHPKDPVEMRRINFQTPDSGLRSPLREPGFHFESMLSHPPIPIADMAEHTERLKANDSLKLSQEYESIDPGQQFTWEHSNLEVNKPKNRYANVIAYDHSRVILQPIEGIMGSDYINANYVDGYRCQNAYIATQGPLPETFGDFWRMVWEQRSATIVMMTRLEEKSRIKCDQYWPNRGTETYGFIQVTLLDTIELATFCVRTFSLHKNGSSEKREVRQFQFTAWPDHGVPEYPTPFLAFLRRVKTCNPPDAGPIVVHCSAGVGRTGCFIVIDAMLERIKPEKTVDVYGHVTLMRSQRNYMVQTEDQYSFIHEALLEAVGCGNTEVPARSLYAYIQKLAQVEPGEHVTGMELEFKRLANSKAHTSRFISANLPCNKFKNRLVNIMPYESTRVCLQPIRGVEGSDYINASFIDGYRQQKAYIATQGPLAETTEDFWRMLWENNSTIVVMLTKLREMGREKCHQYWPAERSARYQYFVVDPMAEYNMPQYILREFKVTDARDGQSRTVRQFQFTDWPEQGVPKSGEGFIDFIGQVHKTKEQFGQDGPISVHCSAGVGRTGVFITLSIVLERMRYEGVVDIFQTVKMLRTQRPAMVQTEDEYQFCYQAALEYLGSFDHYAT
As to the kind of experiment: PTP selectivity assay with DiFMUP substrate.

The next data set has as its target T3, human PTPN1 (Homo sapiens, UniProt P18031).
T3 sequence (P18031 1-321): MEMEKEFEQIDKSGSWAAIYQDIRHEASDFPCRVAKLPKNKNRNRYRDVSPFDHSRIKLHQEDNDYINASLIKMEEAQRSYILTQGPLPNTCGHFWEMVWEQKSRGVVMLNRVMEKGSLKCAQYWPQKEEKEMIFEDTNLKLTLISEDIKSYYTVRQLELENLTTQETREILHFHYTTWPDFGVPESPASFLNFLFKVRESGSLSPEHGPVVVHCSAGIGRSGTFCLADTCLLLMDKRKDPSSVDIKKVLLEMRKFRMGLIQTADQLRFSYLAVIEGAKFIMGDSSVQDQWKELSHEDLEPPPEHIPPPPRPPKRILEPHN
As to the kind of experiment: PTP selectivity assay with DiFMUP substrate.

Data set [2] addresses T1, PTPRZ-ICR. As to the kind of experiment: Hydrolysis of pCAP-GIT1_549–556 by human PTPRZ-ICR, IC50 and kinetic analysis.
Method: (§1) Human PTPRZ-ICR (0.1 nM) was added to the substrate solution (closed arrowheads), and was followed by the addition of test compounds at the indicated concentrations (open arrowheads). The slope of the fluorescence signal during the 40 s before and after the addition of a compound was measured, and the inhibitory effects of each compound were determined by the ratio of the two. […] The inhibition assay was performed with 20 μM DiFMUP, a non-specific PTP substrate.
(§2) min with 1 M Tris HCl, pH 9.2 (20 µl). The final concentrations of compounds, the
(§3) pCAP substrate, and DMSO were 10 µg/ml, 20 µM, and 1% (v/v), respectively.
(§4) Fluorescence was measured at excitation/emission wavelengths of 380/460 nm
(§5) using an EnVision Multilabel Reader (PerkinElmer). A decrease of more than
(§6) 40% in the signal intensity against the DMSO control was considered to be a
(§7) potential hit, and reproducibility was examined with a freshly prepared stock.
(§8) three-component buffer at pH 7.0 using a 384-well plate. The reaction was […]
(§9) calculated by nonlinear regression (JMP software, SAS Institute). […]
(§10) type was analyzed by a Lineweaver-Burk plot according to Michaelis-Menten […]
(§11) was continuously monitored for ~100 s as an increase in fluorescence at 455 nm […]
(§12) measured the slope of the linear increase of the fluorescence signal as an indicator
(§13) of catalytic activity. IC50 values were determined as above.
The next data set deals with PTPRZ-ICR Y1756F mutant (Homo sapiens, UniProt P23471, DEL1723-1729/Y1756F). As to the kind of experiment: Inhibitor sensitivity of site-directed mutant, pCAP assay. Particulars: compounds 10 μM or vanadate 200 μM, 20 μM pCAP-GIT1_549–556.
Another data set addresses PTPRZ-ICR N1758D mutant (Homo sapiens, UniProt P23471, DEL1723-1729/N1758D). The data set is described as above. The settings on record: compounds 10 μM, 20 μM pCAP-GIT1_549–556.
Data set [3] in a line: Parallel artificial membrane permeability assay (PAMPA). The format is in vitro ADME. (In PAMPA a lipid-coated filter parts donor from acceptor wells.)
Another data set deals with human PTPRG (Homo sapiens, UniProt P23470). As to the kind of experiment: PTP selectivity assay with DiFMUP substrate.
Another data set addresses human PTPRM (Homo sapiens, UniProt P28827). As to the kind of experiment: PTP selectivity assay with DiFMUP substrate.
In the next data set the target is mouse PTPRB (Mus musculus, UniProt B2RU80). The data set can be described thus: PTP selectivity assay with DiFMUP substrate.
The next data set addresses T4, human PTPN6 (Homo sapiens, UniProt P29350).
T4 sequence (P29350 220-523): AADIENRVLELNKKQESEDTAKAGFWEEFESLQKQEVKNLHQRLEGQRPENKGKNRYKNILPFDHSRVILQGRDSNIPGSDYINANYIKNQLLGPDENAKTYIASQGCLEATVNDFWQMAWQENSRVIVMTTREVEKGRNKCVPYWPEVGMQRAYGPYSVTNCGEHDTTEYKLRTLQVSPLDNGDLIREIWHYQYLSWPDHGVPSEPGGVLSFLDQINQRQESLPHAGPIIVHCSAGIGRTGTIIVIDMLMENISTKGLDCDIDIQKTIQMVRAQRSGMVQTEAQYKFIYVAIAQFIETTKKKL
As to the kind of experiment: PTP selectivity assay with DiFMUP substrate.

A further data set addresses PTPRZ (Homo sapiens, UniProt P23471, DEL1723-1729). The data set can be described thus: PTP selectivity assay with DiFMUP substrate.
The target of data set [4] is T1, PTPRZ-ICR. The data set can be described thus: Mass spectrometry under non-denaturing conditions (native MS) binding.
The target in another data set is human PTPRA (Homo sapiens, UniProt P18433). The data set can be described thus: PTP selectivity assay with DiFMUP substrate.
The next data set deals with C6 cells. The data set can be described thus: Stability of SCB4380 in C6 cells, time-lapse microscopy after microinjection. Type of data set: cell-based, rat.
Assay in data set [5]: as above
The format is cell-based, rat. Particulars: rat; after direct microinjection, time-lapse microscopy; read-out: Average half-life for disappearance of the fluorescent signal in C6 cells.

For data set [6], the target named is T1, PTPRZ-ICR. The data set can be described thus: In vitro dephosphorylation assay, single concentration of SCB4380 analogues. Type of data set: biochemical. Also noted: PTPRZ (ICR, amino acid residues 1698-2315); FLAG (followed by HRV 3C site) (N, cleaved yes); made in house; host or cells: silkworm (Bombyx mori) pupae, BmNPV baculovirus. The settings on record: compound 10 μM, substrate 20 μM, human PTPRZ-ICR 0.1 nM. The source says: No significant effects were detected with compounds 7 to 10. TEXT PRINTED IN THE PICTURE: (B) 7: (no inhibition) | (B) 8: (no inhibition) | (B) 9: (no inhibition) | (B) 10: (no inhibition)

The test system of a further data set is C6 glioblastoma cells. As to the kind of experiment: Cell proliferation assay. The format is cell-based, rat. The settings on record: parent C6 cells, liposome delivery.

This note sets out measurements from paper PMC4746629, “Small-molecule inhibition of PTPRZ reduces tumor growth in a rat model of glioblastoma” (Scientific Reports, 2016).

Entries after “also recorded” stand apart in the source; their conditions may differ.

PTPRZ-ICR N1758D mutant, sequence (P23471 1698-2308 isoform P23471-2 N1751D limits assumed): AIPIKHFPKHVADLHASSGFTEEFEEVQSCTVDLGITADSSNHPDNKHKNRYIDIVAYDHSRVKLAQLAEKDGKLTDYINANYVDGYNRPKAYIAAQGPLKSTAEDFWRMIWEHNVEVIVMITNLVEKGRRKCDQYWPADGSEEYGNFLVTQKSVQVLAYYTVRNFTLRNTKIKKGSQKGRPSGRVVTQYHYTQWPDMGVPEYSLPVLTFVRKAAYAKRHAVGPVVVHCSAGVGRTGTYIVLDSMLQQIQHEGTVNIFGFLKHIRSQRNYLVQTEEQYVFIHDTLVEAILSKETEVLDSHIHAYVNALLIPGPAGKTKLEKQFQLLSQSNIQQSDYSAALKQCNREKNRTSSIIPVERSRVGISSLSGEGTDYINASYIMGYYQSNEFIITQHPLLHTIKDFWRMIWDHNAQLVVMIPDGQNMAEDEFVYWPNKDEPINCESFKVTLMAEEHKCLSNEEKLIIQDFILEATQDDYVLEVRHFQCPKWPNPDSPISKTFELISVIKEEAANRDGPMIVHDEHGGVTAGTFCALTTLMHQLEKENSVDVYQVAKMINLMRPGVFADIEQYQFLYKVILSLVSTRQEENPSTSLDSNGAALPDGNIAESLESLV
T1 sequence (P23471 1698-2308 isoform P23471-2 limits assumed, stated change not applied): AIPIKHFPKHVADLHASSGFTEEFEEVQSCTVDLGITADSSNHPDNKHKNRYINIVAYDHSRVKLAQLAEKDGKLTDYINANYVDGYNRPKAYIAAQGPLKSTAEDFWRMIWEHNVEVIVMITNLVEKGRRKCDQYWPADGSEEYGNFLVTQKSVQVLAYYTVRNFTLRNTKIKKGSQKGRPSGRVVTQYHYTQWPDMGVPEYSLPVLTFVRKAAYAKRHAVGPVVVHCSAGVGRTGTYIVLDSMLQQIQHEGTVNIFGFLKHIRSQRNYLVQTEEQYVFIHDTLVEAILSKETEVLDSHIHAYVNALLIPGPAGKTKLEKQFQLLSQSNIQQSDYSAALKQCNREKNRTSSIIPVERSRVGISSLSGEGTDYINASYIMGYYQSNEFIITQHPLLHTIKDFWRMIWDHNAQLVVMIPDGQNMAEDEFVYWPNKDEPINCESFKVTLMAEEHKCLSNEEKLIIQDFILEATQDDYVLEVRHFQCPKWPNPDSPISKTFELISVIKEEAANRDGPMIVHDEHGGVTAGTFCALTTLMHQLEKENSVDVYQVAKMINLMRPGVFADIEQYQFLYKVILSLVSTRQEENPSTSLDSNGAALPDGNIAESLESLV
PTPRZ-ICR Y1756F mutant, sequence (P23471 1698-2308 isoform P23471-2 Y1749F limits assumed): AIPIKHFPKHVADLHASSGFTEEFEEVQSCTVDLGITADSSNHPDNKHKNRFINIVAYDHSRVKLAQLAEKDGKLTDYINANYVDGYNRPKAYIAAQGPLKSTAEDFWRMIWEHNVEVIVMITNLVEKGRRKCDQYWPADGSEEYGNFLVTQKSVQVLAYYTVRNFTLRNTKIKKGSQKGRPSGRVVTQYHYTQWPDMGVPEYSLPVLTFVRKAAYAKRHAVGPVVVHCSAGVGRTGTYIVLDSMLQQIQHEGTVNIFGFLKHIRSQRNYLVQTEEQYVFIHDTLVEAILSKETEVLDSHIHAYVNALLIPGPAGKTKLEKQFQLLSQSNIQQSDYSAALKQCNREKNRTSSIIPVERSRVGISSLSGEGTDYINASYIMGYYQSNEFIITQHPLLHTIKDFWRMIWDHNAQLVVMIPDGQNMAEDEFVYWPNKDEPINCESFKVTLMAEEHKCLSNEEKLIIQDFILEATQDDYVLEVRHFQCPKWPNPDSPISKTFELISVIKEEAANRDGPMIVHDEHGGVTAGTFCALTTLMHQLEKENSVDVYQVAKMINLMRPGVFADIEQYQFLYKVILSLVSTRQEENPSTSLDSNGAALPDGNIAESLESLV
human PTPRG, sequence (P23470 790-1445): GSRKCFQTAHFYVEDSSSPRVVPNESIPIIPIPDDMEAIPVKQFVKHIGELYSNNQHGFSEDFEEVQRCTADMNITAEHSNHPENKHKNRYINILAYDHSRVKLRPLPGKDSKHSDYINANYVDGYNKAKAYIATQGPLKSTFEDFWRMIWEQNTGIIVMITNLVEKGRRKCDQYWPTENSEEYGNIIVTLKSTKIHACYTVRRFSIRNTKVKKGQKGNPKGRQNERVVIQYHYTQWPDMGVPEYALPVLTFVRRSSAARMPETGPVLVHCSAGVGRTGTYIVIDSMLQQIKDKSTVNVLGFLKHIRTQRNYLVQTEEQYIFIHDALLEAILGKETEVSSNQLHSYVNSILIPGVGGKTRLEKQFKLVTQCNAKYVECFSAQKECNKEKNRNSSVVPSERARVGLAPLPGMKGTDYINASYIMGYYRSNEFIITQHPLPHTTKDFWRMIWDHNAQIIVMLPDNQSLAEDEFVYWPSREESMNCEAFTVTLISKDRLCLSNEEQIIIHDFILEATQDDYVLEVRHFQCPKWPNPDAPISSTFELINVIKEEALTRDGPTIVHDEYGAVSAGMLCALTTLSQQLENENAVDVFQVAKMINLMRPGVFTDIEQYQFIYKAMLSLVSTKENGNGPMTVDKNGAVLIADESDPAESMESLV
human PTPRM, sequence (P28827 765-1452): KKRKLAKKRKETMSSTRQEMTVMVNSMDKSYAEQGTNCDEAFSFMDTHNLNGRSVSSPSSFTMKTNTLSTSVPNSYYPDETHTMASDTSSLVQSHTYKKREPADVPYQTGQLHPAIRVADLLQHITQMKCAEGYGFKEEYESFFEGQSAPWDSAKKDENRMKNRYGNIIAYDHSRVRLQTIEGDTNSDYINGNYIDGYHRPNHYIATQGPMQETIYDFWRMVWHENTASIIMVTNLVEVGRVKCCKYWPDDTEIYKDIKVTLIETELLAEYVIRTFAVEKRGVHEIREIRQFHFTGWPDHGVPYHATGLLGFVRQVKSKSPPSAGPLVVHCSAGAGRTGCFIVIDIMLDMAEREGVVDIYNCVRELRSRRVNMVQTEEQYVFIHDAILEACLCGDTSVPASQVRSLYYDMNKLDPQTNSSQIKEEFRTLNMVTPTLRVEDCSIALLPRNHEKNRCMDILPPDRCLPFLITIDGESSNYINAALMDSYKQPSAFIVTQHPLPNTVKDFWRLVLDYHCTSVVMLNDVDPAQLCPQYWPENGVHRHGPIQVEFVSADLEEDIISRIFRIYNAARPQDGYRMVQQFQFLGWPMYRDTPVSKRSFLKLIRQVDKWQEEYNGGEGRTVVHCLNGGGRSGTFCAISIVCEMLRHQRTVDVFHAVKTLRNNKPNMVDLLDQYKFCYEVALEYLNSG
mouse PTPRB, sequence (B2RU80 1644-1997 limits assumed): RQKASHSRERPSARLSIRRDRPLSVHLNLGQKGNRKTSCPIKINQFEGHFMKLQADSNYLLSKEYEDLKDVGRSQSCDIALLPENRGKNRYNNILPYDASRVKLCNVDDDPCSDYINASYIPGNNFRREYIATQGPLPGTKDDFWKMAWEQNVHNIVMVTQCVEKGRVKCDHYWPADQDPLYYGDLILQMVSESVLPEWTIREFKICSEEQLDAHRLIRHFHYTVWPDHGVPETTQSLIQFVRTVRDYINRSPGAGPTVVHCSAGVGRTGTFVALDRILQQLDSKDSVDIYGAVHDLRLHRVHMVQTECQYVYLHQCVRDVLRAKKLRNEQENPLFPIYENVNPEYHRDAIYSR
PTPRZ, sequence (P23471 1698-2308 isoform P23471-2 limits assumed, stated change not applied): as the sequence (P23471 1698-2308 isoform P23471-2 limits assumed, stated change not applied) above
Method for PTPRZ-ICR N1758D mutant: (G) Inhibitor sensitivity.
(§14) Two hundred microliters of pCAP-peptide substrates (20 μM) in a three-component buffer of pH 7.0 (100 mM acetate, 50 mM Tris, and 50 mM Bis-Tris) containing 5 mM DTT and 0.01% (v/v) Brij-35 were preincubated in a cuvette at room temperature. The reaction was initiated by adding 2 μl of an enzyme solution, and incubated for ~100 s; the amount of the enzyme was adjusted to give a convenient rate. Compounds were then added to the same cuvette at a 1/100 volume. In each experiment, the hydrolysis of the pCAP residue was continuously monitored as an increase in fluorescence at 460 nm (excitation at 334 nm) using a spectrofluorometer (FI-4500, Hitachi). We measured the slope of the linear increase of the fluorescence signal as an indicator of catalytic activity, which was obtained during the 40 s before and after the addition of a compound. The inhibitory effects of each compound were determined by the ratio of the activities, and indicated as the relative value to that of DMSO control.
(§15) respective full-length clones, and the cDNA fragments were fused in frame to the
(§16) coding sequence of glutathione S-transferase (GST) of the Escherichia coli (E. coli)
(§17) expression vector, pGEX-6P (GE Healthcare).
(§18) point mutants, pGEX-6P-PTPRZ-ICR was used as a template with a Quikchange
(§19) multisite-directed mutagenesis kit (Stratagene).
Method for PTPRZ-ICR Y1756F mutant: (G) Inhibitor sensitivity.
as §14, §15, §16, §17, §18, §19
Method for human PTPN1: as §1, §3, §4
(§20) using an EnVision Multilabel Reader (PerkinElmer).
(§21) calculated by nonlinear regression (JMP software, SAS Institute).
(§22) type was analyzed by a Lineweaver-Burk plot according to Michaelis-Menten
(§23) BSA, 5 mM DTT and 0.01% Brij-35) with DiFMUP
(§24) (6,8-difluoro-4-methylumbiliferyl phosphate, Molecular probe) as a nonspecific PTP
(§25) substrate. One hundred microliters of 40 µM DiFMUP were preincubated in a
cuvette at room temperature.
(§26) In each experiment, the hydrolysis of DiFMUP
(§27) was continuously monitored for ~100 s as an increase in fluorescence at 455 nm
(§28) (excitation at 358 nm) using a spectrofluorometer (FI-4500, Hitachi). We
as §12, §13
Method for human PTPN6: as §1, §3, §4, §20, §21, §22, §23, §24, §25
cuvette at room temperature.
as §26, §27, §28, §12, §13
Method for human PTPRA: as §1, §2, §3, §4, §5, §6, §7, §8, §9, §10, §11, §12, §13
Method for human PTPRG: as §1, §2, §3, §4, §5, §6, §7, §8, §9, §10, §11, §12, §13
Method for human PTPRM: as §1, §2, §3, §4, §5, §6, §7, §8, §9, §10, §11, §12, §13
Method for human PTPRS: as §1, §3, §4, §20, §21, §22, §23, §24, §25
cuvette at room temperature.
as §26, §27, §28, §12, §13
Method for mouse PTPRB: as §1, §3, §4, §20, §21, §22, §23, §24, §25
cuvette at room temperature.
as §26, §27, §28, §12, §13

The Kd is the free concentration of one partner at which half of the binding sites on the other are occupied at equilibrium, for simple one-to-one binding. Low values mean a tighter complex, high ones a looser complex. For orientation: IC50 means the point on the concentration scale where inhibition reaches its midpoint. Usually half-life stands for the time needed for the level to fall by half in the phase considered. Consider `O=S(=O)([O-])c1ccc2c(N=Nc3ccc(S(=O)(=O)[O-])c4ccccc34)c(O)c(S(=O)(=O)[O-])cc2c1.[Na+].[Na+].[Na+]` [SCB4380, trisodium 3-hydroxy-4-[(4-sulfonato-1-naphthyl)diazenyl]-2,7-naphthalenedisulfonate], for which the Kd on PTPRZ-ICR [1] was 1.23 µM. For the same compound, the “ΔH (enthalpy change, ITC)” value at PTPRZ-ICR [1] (298.15 K, pH 7.5) was -14 kcal/mol. Further, the IC50 on human PTPRS was 14.8 µM; at human PTPN1, 19.5 µM; at PTPRZ-ICR [2] it was 0.4 µM; against human PTPRG, 0.4 µM; against human PTPRM, 60.7 µM; on mouse PTPRB, 73.8 µM. Moreover, the IC50 is 24.6 µM at human PTPN6, 0.4 µM against PTPRZ and 75.7 µM against human PTPRA. The “Inhibition type by Lineweaver-Burk plot analysis” value on PTPRZ-ICR [2] (human PTPRZ-ICR, pCAP-peptide substrate) is “competitive”. In addition, the “Inhibitor sensitivity of Y1756F mutant versus wild-type enzyme” value at PTPRZ-ICR Y1756F mutant is given as “impaired the inhibition by SCB4380 markedly”. In addition, at PTPRZ-ICR N1758D mutant, the “Inhibitor sensitivity of N1758D mutant versus wild-type enzyme” value is “resistant to inhibition”. The Membrane permeability result in [3] is “deficient and low”. Also, the “Binding to PTPRZ-ICR by native MS” value on PTPRZ-ICR [4] is “bound to Z-ICR in a one-to-one stoichiometry”. Besides, the “Stability in living cells” value in the data set with C6 cells was “substantial instability”. In addition, in data set [5], the half-life is ~50 min.

In the case of `O=S(=O)([O-])c1cc(S(=O)(=O)[O-])c2c(N=Nc3ccc(S(=O)(=O)[O-])c4ccccc34)c(O)ccc2c1.[Na+].[Na+].[Na+]` [compound 2, trisodium 7-hydroxy-8-[(4-sulfonato-1-naphthyl)diazenyl]-1,3-naphthalenedisulfonate], on PTPRZ-ICR [6], the “Inhibitory effect on hydrolysis of pCAP-GIT1_549–556 (residual enzymatic activity relative to DMSO control)” value is reported as “almost no inhibition”. Moreover, in the data set with C6 glioblastoma cells, the “Proliferation of C6 glioblastoma cells (increase in cell number in 24 h)” value is “did not show suppressive effects”. In addition, the “Binding to PTPRZ-ICR by native MS” value at PTPRZ-ICR [4] is reported as “no binding activity”.

With `O=S(=O)([O-])c1ccc2c(N=Nc3ccc(S(=O)(=O)[O-])c4ccccc34)c(O)ccc2c1.[Na+].[Na+]` [compound 3, disodium 6-hydroxy-5-[(4-sulfonato-1-naphthyl)diazenyl]-2-naphthalene sulfonate], the “Inhibitor sensitivity of N1758D mutant versus wild-type enzyme” value at PTPRZ-ICR N1758D mutant is “no changes in sensitivity”. Besides, the “Binding to PTPRZ-ICR by native MS” value at PTPRZ-ICR [4] is “no binding activity”.

For the compound `O=S(=O)([O-])c1ccc(N=Nc2c(O)ccc3ccccc23)c2ccccc12.[Na+]` [compound 4, sodium 4-(2-hydroxy-1-naphthalenylazo)-1-naphthalenesulfonate], the “Inhibitor sensitivity of N1758D mutant versus wild-type enzyme” value on PTPRZ-ICR N1758D mutant was “no changes in sensitivity”.

In the case of `O=S(=O)([O-])c1ccc2c(N=Nc3cccc4ccccc34)c(O)c(S(=O)(=O)[O-])cc2c1.[Na+].[Na+]` [compound 5, disodium 3-hydroxy-4-(1-naphthyldiazenyl)-2,7-naphthalenedisulfonate], the entries for the “Inhibitory effect on hydrolysis of pCAP-GIT1_549–556 (residual enzymatic activity relative to DMSO control)” value on PTPRZ-ICR [6] and at PTPRZ-ICR [6] (listed as Compound 5) were “markedly abolished inhibitory activity” and “weakly inhibited”, respectively. On PTPRZ-ICR N1758D mutant, the “Inhibitor sensitivity of N1758D mutant versus wild-type enzyme” value is “resistant to inhibition”.

Take `O=[N+]([O-])c1ccc(N=Nc2c(O)c(S(=O)(=O)[O-])cc3cc(S(=O)(=O)[O-])ccc23)cc1.[Na+].[Na+]` [compound 6, sodium 3-hydroxy-4-[(4-nitrophenyl)diazenyl]-2,7-naphthalenedisulfonate]: the “Inhibitory effect on hydrolysis of pCAP-GIT1_549–556 (residual enzymatic activity relative to DMSO control)” value at PTPRZ-ICR [6] is given as “markedly abolished inhibitory activity; also recorded: weakly inhibited”.

As to `O=Nc1c(O)c(S(=O)(=O)O)cc2cc(S(=O)(=O)O)ccc12` [compound 7, disodium 1-nitroso-2-naphthol-3,6-disulfonate monohydrate], the “Inhibitory effect on hydrolysis of pCAP-GIT1_549–556 (residual enzymatic activity relative to DMSO control)” value on PTPRZ-ICR [6] is recorded as “no inhibition”.

For `O=S(=O)([O-])c1ccc2cc(O)c(S(=O)(=O)[O-])cc2c1.[Na+].[Na+]` [compound 8, disodium 3-hydroxy-2,7-naphthalenedisulfonate], on PTPRZ-ICR [6], the “Inhibitory effect on hydrolysis of pCAP-GIT1_549–556 (residual enzymatic activity relative to DMSO control)” value is given as “no inhibition”.

Turning to `Nc1ccc(S(=O)(=O)O)c2ccccc12` [compound 9, 4-amino-1-naphthalenesulfonic acid], the “Inhibitory effect on hydrolysis of pCAP-GIT1_549–556 (residual enzymatic activity relative to DMSO control)” value at PTPRZ-ICR [6] was “no inhibition”.

Turning to `O=S(=O)(O)c1cccc2ccccc12` [compound 10, sodium 1-naphthalenesulfonate], at PTPRZ-ICR [6], the “Inhibitory effect on hydrolysis of pCAP-GIT1_549–556 (residual enzymatic activity relative to DMSO control)” value is on record as “no inhibition”.

Turning to `[O]=[V]([O-])([O-])[O-]` [vanadate, reference compound], at PTPRZ-ICR Y1756F mutant, the “Inhibitor sensitivity of Y1756F mutant versus wild-type enzyme” value is “not by vanadate”.
